*1 amine or outer side, *2 acyl side, *3 side chain or, on linkers, in order; H or OH if unused. Where no end group is shown, it is not given here. [ ]: non-standard residue; d: D form. The star is where a group is joined. FITC = O=C1OC2(c3ccc(O)cc3Oc3cc(O)ccc32)c2ccc(NC(=S)*)cc21; Cys(Me) = CSC[C@H](N[*:1])C(=O)[*:2]; AEA = NCCOCC(=O)O
What was measured:
[1] = test system: unstable plaque in the mouse carotid artery; test: Ex vivo binding to frozen sections of tandem stenosis mouse carotid unstable plaques; conditions: 0.1 mg/ml conjugate, 60 minutes, FITC channel fluorescence microscopy
Description: (§1) Conjugates of T-peptide (TLTYTWS)-FITC (Alexa 488) and control peptide (Con-peptide)-FITC were commercially synthesized (GL Biochem, Shanghai China) using solid phase peptide synthesis, as described above. The concentration of the synthesized peptide-FITC conjugates was 1 mg/ml.
(§2) At 12 weeks of age and 6 weeks after commencement of high fat diet, ApoE−/− mice (C57BL/6J background) were anaesthetized by intraperitoneal injection of a mixture of ketamine (100 mg/kg) and xylazine (10 mg/kg). An incision was made in the neck and the right common carotid artery exposed by dissecting away circumferential connective tissue. A tandem stenosis with 150 μm outer diameter was introduced with the distal stenosis placed 1 mm from the carotid artery bifurcation and the proximal stenosis 3 mm from the distal stenosis. A 6-0 blue braided polyester fibre suture was tied around the carotid artery and a 150 μm needle to achieve the stenosis diameter of 150 μm and the needle was subsequently removed after the suture was secured. The incision wound was sutured close and the mice resumed their high fat diet. […]
(§3) Frozen […] tissue sections of tandem stenosis mouse carotid unstable plaques and aortic arch stable plaques on glass slides were thawed for 30 minutes at room temperature. […] The slides were then examined by fluorescence microscopy (IX81 Olympus microscope) in the FITC 488 nm channel.

[2] = test system: areas of localised fibrosis in the myocardium; test: Ex vivo binding to infarcted mouse myocardium (LAD occlusion); conditions: ex vivo sections of infarcted mouse hearts 6 weeks after LAD ligation
Description: To assess whether labelled T-peptide can bind to fibrotic myocardium, a mouse model of myocardial infarction (via left anterior descending coronary artery (LAD) occlusion) was used. This model reflects a very defined area of fibrosis in the infarct zone.
Mice were anaesthetised, the LAD ligated with a suture, and the thorax closed. After 60 mins the suture was removed. After 6 weeks and the development of fibrosis, parts of the infarcted hearts were sectioned and incubated with the T-peptide-FITC and control (s)-peptide-FITC constructs.

[3] = test system: unstable plaque (right common carotid artery segment 1); test: In vivo binding to unstable plaque after intravenous administration to tandem stenosis mice; parameters: species or system mouse; conditions: tandem stenosis ApoE-/- mice, bolus plus infusion into jugular vein, tissue taken 30 minutes after administration
Description: (§4) The T-peptide-FITC (Alexa 488) and its control scrambled peptide Con-peptide-FITC were commercially synthesized (GL Biochem. Shanghai China) using solid phase peptide synthesis, as described elsewhere herein. The concentration of the synthesized peptides were all at 1 mg/ml,
(§5) Each mouse with an average weight of 25 g, would receive […] of T-peptide-FITC or […] of Con-peptide-FITC diluted 1:2 to give concentration of 0.5 mg/ml, which works out to be […] body weight, […] of the diluted peptide will be given as a bolus into the left external jugular vein and the remaining […] by infusion at a rate of […] using an infusion pump connected to a plastic catheter inserted into the left external jugular vein. The method of bolus dose followed by infusion is to optimize the blood level and duration of the circulating peptide to enhance plaque entry and vascular tissue retention of the peptide, since the small molecular weight of the peptide is at risk of rapid clearance through the kidneys. […]
(§6) The frozen section slides were thawed for 30 minutes at room temperature before examination under the fluorescence microscope (IX81 Olympus microscope) in the FITC 488 nm channel.

[4] = test system: MMP2-predigested collagen IV; test: In vitro binding to MMP2-predigested collagen IV coated glass slides; parameters: species or system human; conditions: for FITC signal on MMP2-predigested collagen IV coated glass slide: 0.1 mg/ml, room temperature
Description: (§7) T-peptide-FITC (Alexa 488) and control peptide-FITC conjugates, as well as the unlabelled T-peptide-LPETG peptide, were commercially synthesized (GL Biochem. Shanghai, China) using solid phase peptide synthesis, as described elsewhere herein. The concentration of the synthesized peptides were all at 1 mg/ml.
Binding to MMP2 digested collagen IV Collagen IV was applied to glass slides coated with polylysine. 1. Polylysine (MW of 30,000-70,000) at 0.1 mg/ml in 0.15 M borate buffer (pH 8.3) was prepared and filtered with […] pore size membrane syringe filter (Millex® Syringe Filter, Millipore). 2. Collagen IV (collagen type IV from human fibroblast culture, Sigma. Aldrich) was diluted to 1:10 with Hank's Balanced Salt Solution (HBSS) to 0.04 mg/ml. 3. For MMP2 digestion, Active recombinant human MMP2 enzyme (expressed in CHO cells) was purchased from Calbiochem. MMP2 stock solution was diluted with PBS to create 0.01 μg/μl MMP2 concentration according to manufacturer's recommendations. 4. For T-peptide-HTC testing using added MMP2, 20 μl of polylysine was spotted on several glass slides and left overnight at room temperature to dry. This forms a coating base for collagen to adhere to subsequently. 5. To predigest some collagen IV with MMP2, 3 μl of (0.1 mg/ml ) MMP2 was mixed with 35.8 μl of diluted collagen IV solution with 1.2 μl of 100 mM CaCl2 (3 mM Calcium final concentration) in an Eppendorf tube and incubated at 37° C. shaking at 600 rpm in an Eppendorf Thermomixer for 2 hours. 6. To create intact collagen IV coated slides, […] of diluted collagen IV solution was dropped onto the dried polylysine spot on the slide. 7. To create MMP2 predigested collagen IV coated slides, […] predigested collagen IV was dropped onto the dried polylysine spot on the glass slide. 8. The slides with collagen IV were dried uncovered overnight before testing. 9. Next day, […] of T-peptide-FITC (0.1 mg/ml) was added to the MMP2 predigested collagen spot, […] of T-peptide-FITC (0.1 mg/ml) was added to the intact collagen slide, and […] Control peptide-FITC (0.1mg/ml) was added to the MMP2 predigested collagen slide and the slides were incubated in a covered humidified box with wet paper towels at room temperature for 60 minutes. 10. For the ‘blocked epitope’ slide, […] of unlabelled T-peptide-LPETG (0.1 mg/ml) was added to the MMP2 predigested collagen slide and incubated similarly for 60 minutes. This step binds the epitopes present on the collagen IV and prevents further binding with the FITC labelled T-peptide. Next, […] of T-peptide-FITC (0.1 mg/ml) was added to the same area and incubated for 60 minutes. 11. All the treated slides were examined under fluorescence microscopy (IX81 Olympus microscope).

[5] = test system: stable plaque (aortic arch segment 5); test: In vivo binding to stable aortic arch plaque after intravenous administration to tandem stenosis mice; parameters: species or system mouse; conditions: tandem stenosis ApoE-/- mice, bolus plus infusion into jugular vein, tissue taken 30 minutes after administration
Description: as §4, §5, §6

intact collagen IV = test: In vitro binding to undigested collagen IV coated glass slides; parameters: species or system human; conditions: 0.1 mg/ml, 60 minutes, room temperature
Description: as §7
Binding to MMP2 digested collagen IV Collagen IV was applied to glass slides coated with polylysine. 1. Polylysine (MW of 30,000-70,000) at 0.1 mg/ml in 0.15 M borate buffer (pH 8.3) was prepared and filtered with […] pore size membrane syringe filter (Millex® Syringe Filter, Millipore). 2. Collagen IV (collagen type IV from human fibroblast culture, Sigma. Aldrich) was diluted to 1:10 with Hank's Balanced Salt Solution (HBSS) to 0.04 mg/ml. 3. For MMP2 digestion, Active recombinant human MMP2 enzyme (expressed in CHO cells) was purchased from Calbiochem. MMP2 stock solution was diluted with PBS to create 0.01 μg/μl MMP2 concentration according to manufacturer's recommendations. 4. For T-peptide-HTC testing using added MMP2, 20 μl of polylysine was spotted on several glass slides and left overnight at room temperature to dry. This forms a coating base for collagen to adhere to subsequently. 5. […] All the treated slides were examined under fluorescence microscopy (IX81 Olympus microscope).

[6] = test system: stable aortic arch plaques; test: Ex vivo binding to frozen sections of stable aortic arch plaques; parameters: species or system mouse; conditions: 0.1 mg/ml conjugate, 60 minutes, FITC channel fluorescence microscopy
Description: as §1, §2, §3

blocking of T-peptide-FITC binding to MMP2-predigested collagen IV ([4]; preincubation 0.1 mg/ml, 60 minutes) | binding to MMP2-predigested collagen IV fibres with additional amino acids at the N terminus [4] | Substance | binding to unstable plaque (fluorescent signal) [1] | binding to fibrotic myocardium [2] | binding to the unstable plaque following intravenous administration [3] | FITC signal on MMP2-predigested collagen IV coated glass slide ([4]; 60 minutes) | FITC signal on MMP2-predigested collagen IV slide preincubated with unlabelled T-peptide ([4]; blocked epitope slide: unlabelled T-peptide-LPETG 0.1 mg/ml 60 minutes, then T-peptide-FITC 0.1 mg/ml 60 minutes) | binding to the stable aortic arch plaque after intravenous administration [5] | FITC signal on undigested collagen IV coated glass slide (intact collagen IV) | binding to stable plaque (fluorescent signal) [6]
 |  | H-TLTYTWSGK(FITC)-OH (SMILES CC(C)C[C@H](NC(=O)[C@@H](N)[C@@H](C)O)C(=O)N[C@H](C(=O)N[C@@H](Cc1ccc(O)cc1)C(=O)N[C@H](C(=O)N[C@@H](Cc1c[nH]c2ccccc12)C(=O)N[C@@H](CO)C(=O)NCC(=O)N[C@@H](CCCCNC(=S)Nc1ccc2c(c1)C(=O)OC21c2ccc(O)cc2Oc2cc(O)ccc21)C(=O)O)[C@@H](C)O)[C@@H](C)O) [T-peptide-FITC conjugate] | strong fluorescent signal within the lumen | binds specifically to areas of localised fibrosis in the myocardium | strong binding | strong FITC signal | no significant FITC signal | no binding | no FITC signal | no fluorescent signal within the vascular lumen
 |  | H-GLGYGWSGK(FITC)-OH (SMILES CC(C)C[C@H](NC(=O)CN)C(=O)NCC(=O)N[C@@H](Cc1ccc(O)cc1)C(=O)NCC(=O)N[C@@H](Cc1c[nH]c2ccccc12)C(=O)N[C@@H](CO)C(=O)NCC(=O)N[C@@H](CCCCNC(=S)Nc1ccc2c(c1)C(=O)OC21c2ccc(O)cc2Oc2cc(O)ccc21)C(=O)O) [control peptide-FITC conjugate, reference compound] | no significant binding | no evidence of binding | no evidence of binding | no FITC signal |  |  |  | 
blocked binding |  | HTLTYTWSGGGLPETGGHHHHHH-OH [T-peptide-LPETG] |  |  |  |  |  |  |  | 
 | did not reduce or eliminate binding | GGGWWSSASPAATLTYTWSGLPAPASPA-eeeeeeee-(Aop)-PLGC(Me)AG-rrrrrrrrr-GAGAPAC (GGGWWSSASPAATLTYTWSGLPAPASPA[dE][dE][dE][dE][dE][dE][dE][dE][AEA]PLG[Cys(Me)]AG[dR][dR][dR][dR][dR][dR][dR][dR][dR]GAGAPAC) [GGG-T-peptide-ACPP-cysteine] |  |  |  |  |  |  |  | 
